Experimental data: patent publication US12128035B2, “Activating pyruvate kinase R” (Novo Nordisk Health Care AG, priority 2021, dated 2024)

Test system: 2,3-DPG blood levels
Experiment: Phase 1 SAD/MAD: blood 2,3-DPG (LC-MS/MS) in healthy volunteers
Assay type: in vivo, human
Method: In this study, SAD/MAD cohorts are randomized (3 to 1) to receive Compound 1 or placebo (P). Compound 1 was evaluated first in 4 healthy SAD cohorts and 4 healthy MAD (14-day dosing period) cohorts. Based on the safety, and PK/PD profile from HS, Compound 1 is then evaluated in 1 SCD SAD cohort and 2 SCD MAD cohorts. Specifically, based on the safety and pharmacokinetic/pharmacodynamics (PK/PD) profile in healthy volunteer studies, Compound 1 is evaluated in patients (pts) with SCD, first in a single dose (SD or SAD) cohort and then in multiple-dose (MD or MAD) cohorts (14-day and 12-week). Safety assessments include AEs, vital signs, ECGs and laboratory parameters. PK/PD blood sampling was performed on Day 1 (SAD/MAD) and Day 14 (MAD) and up to 72 h after the last dose and at the end-of-study visit. PD parameters included 2,3-DPG, ATP, and p50 in all cohorts with additional PD studies (including oxygen scan) performed only in the SCD cohorts. PD parameters included 2,3-DPG, ATP, p50, RBC deformability with controlled deoxygenation and reoxygenation (Lorrca® oxygen scan) and varying osmolality (Lorrca® osmoscan)). To maintain study blind, pt identifiers were removed when needed.
In the SAD cohorts, the subjects' blood 2,3-DPG levels were measured periodically after dosing by a qualified LC-MS/MS method for the quantitation of 2,3-DPG in blood. Decreased 2,3-DPG blood levels were observed 6 hours following a single dose of Compound 1 at all dose levels (earlier timepoints were not collected). Maximum decreases in 2,3-DPG levels generally occurred ˜24 hours after the first dose with the reduction sustained ˜48-72 hr postdose. Table 15 reports the median percentage change in 2,3-DPG blood levels, relative to baseline, measured over time in healthy volunteers after a single dose of Compound 1 (200 mg, 400 mg, 700 mg, or 1000 mg) or placebo. Table 16 reports the mean percentage change in 2,3-DPG blood levels, relative to baseline, measured over time in healthy volunteers after a single dose of Compound 1 (200 mg, 400 mg, 700 mg, or 1000 mg). Accordingly, the median and mean reduction in the concentration of 2,3-DPG, relative to baseline, was at least about 30% at all dose levels tested 24 hours after administration of the single dose.
In the MAD cohorts, the subjects' blood 2,3-DPG levels were measured periodically after dosing by a qualified LC-MS/MS method for the quantitation of 2,3-DPG in blood. […] Table 18B reports the mean percentage change in 2,3-DPG blood levels, relative to baseline, measured over time after the first dose on days 1 and 14 in healthy volunteers who received daily doses of Compound 1 (100 mg BID, 200 mg BID, 300 mg BID, or 400 mg QD) for 14 days. Accordingly, the median and mean reduction in the concentration of 2,3-DPG, relative to baseline, was at least about 25% at all dose levels tested 24 hours after administration of the first dose on day 1 and at least about 40% at all dose levels tested 24 hours after administration of the first dose on day 14.
The following procedures are employed for the analysis of ATP and 2,3-DPG in human whole blood K2EDTA using a protein precipitation extraction procedure and analysis by LC-MS/MS.
The following procedures are used for sample extraction prior to analysis via LC-MS/MS. 15.0 μL of the calibration standards, quality controls, matrix blanks, and samples are aliquoted into a 96-well plate. 50.0 μL of the internal standard spiking solution is added to all samples on the plate, with the exception of the matrix blank samples; 50.0 μL of water is added to the matrix blank samples. Subsequently, 150 μL of water is added to all samples on the plate. The plate is then covered and agitated by vortex at high speed for ten minutes, after which 750 μL of methanol is added to all samples on the plate. The plate is covered and agitated by vortex for approximately 1 minute. The plate is then centrifuged at approximately 3500 RPM at approximately 4° C. for five minutes. […]

[1] = HV 100 mg BID, Day 1, 0 h after first daily dose
[2] = HV 100 mg BID, Day 1, 6 h after first daily dose
[3] = HV 100 mg BID, Day 1, 8 h after first daily dose
[4] = HV 100 mg BID, Day 1, 12 h after first daily dose
[5] = HV 100 mg BID, Day 1, 16 h after first daily dose
[6] = HV 100 mg BID, Day 1, 24 h after first daily dose
[7] = HV 100 mg BID, Day 14, 0 h after first daily dose
[8] = HV 100 mg BID, Day 14, 6 h after first daily dose
[9] = HV 100 mg BID, Day 14, 8 h after first daily dose
[10] = HV 100 mg BID, Day 14, 12 h after first daily dose
[11] = HV 100 mg BID, Day 14, 16 h after first daily dose
[12] = HV 100 mg BID, Day 14, 24 h after first daily dose
[13] = HV 100 mg BID, Day 14, 48 h after first daily dose
[14] = HV 100 mg BID, Day 14, 72 h after first daily dose
[15] = HV 200 mg BID, Day 1, 0 h after first daily dose
[16] = HV 200 mg BID, Day 1, 6 h after first daily dose
[17] = HV 200 mg BID, Day 1, 8 h after first daily dose
[18] = HV 200 mg BID, Day 1, 12 h after first daily dose
[19] = HV 200 mg BID, Day 1, 16 h after first daily dose
[20] = HV 200 mg BID, Day 1, 24 h after first daily dose
[21] = HV 200 mg BID, Day 14, 0 h after first daily dose
[22] = HV 200 mg BID, Day 14, 6 h after first daily dose
[23] = HV 200 mg BID, Day 14, 8 h after first daily dose
[24] = HV 200 mg BID, Day 14, 12 h after first daily dose
[25] = HV 200 mg BID, Day 14, 16 h after first daily dose
[26] = HV 200 mg BID, Day 14, 24 h after first daily dose
[27] = HV 200 mg BID, Day 14, 48 h after first daily dose
[28] = HV 200 mg BID, Day 14, 72 h after first daily dose
[29] = HV 300 mg BID, Day 1, 0 h after first daily dose
[30] = HV 300 mg BID, Day 1, 6 h after first daily dose
[31] = HV 300 mg BID, Day 1, 8 h after first daily dose
[32] = HV 300 mg BID, Day 1, 12 h after first daily dose
[33] = HV 300 mg BID, Day 1, 16 h after first daily dose
[34] = HV 300 mg BID, Day 1, 24 h after first daily dose
[35] = HV 300 mg BID, Day 14, 0 h after first daily dose
[36] = HV 300 mg BID, Day 14, 8 h after first daily dose
[37] = HV 300 mg BID, Day 14, 12 h after first daily dose
[38] = HV 300 mg BID, Day 14, 16 h after first daily dose
[39] = HV 300 mg BID, Day 14, 24 h after first daily dose
[40] = HV 300 mg BID, Day 14, 48 h after first daily dose
[41] = HV 300 mg BID, Day 14, 72 h after first daily dose
[42] = HV 400 mg QD, Day 1, 0 h after first daily dose
[43] = HV 400 mg QD, Day 1, 8 h after first daily dose
[44] = HV 400 mg QD, Day 1, 12 h after first daily dose
[45] = HV 400 mg QD, Day 1, 16 h after first daily dose
[46] = HV 400 mg QD, Day 1, 24 h after first daily dose
[47] = HV 400 mg QD, Day 14, 0 h after first daily dose

O=C([C@H](CO)c1ccccc1)N1CC2=C(C1)CN(S(=O)(=O)c1cnc3c(c1)OCCO3)C2 (single isomer, unassigned) [Compound 1]
Mean Percentage Change in 2,3-DPG Levels [1]: 0%
Median Percentage Change in 2,3-DPG Levels [1]: 0.0%
Mean Percentage Change in 2,3-DPG Levels [2]: −15%
Median Percentage Change in 2,3-DPG Levels [2]: −16%
Mean Percentage Change in 2,3-DPG Levels [3]: −13%
Median Percentage Change in 2,3-DPG Levels [3]: −12%
Mean Percentage Change in 2,3-DPG Levels [4]: −18%
Median Percentage Change in 2,3-DPG Levels [4]: −18%
Mean Percentage Change in 2,3-DPG Levels [5]: −20%
Median Percentage Change in 2,3-DPG Levels [5]: −18%
Mean Percentage Change in 2,3-DPG Levels [6]: −29%
Median Percentage Change in 2,3-DPG Levels [6]: −28%
Mean Percentage Change in 2,3-DPG Levels [7]: −43%
Median Percentage Change in 2,3-DPG Levels [7]: −42.0%
Mean Percentage Change in 2,3-DPG Levels [8]: −44%
Median Percentage Change in 2,3-DPG Levels [8]: −44%
Mean Percentage Change in 2,3-DPG Levels [9]: −45%
Median Percentage Change in 2,3-DPG Levels [9]: −45%
Mean Percentage Change in 2,3-DPG Levels [10]: −44%
Median Percentage Change in 2,3-DPG Levels [10]: −44%
Mean Percentage Change in 2,3-DPG Levels [11]: −42%
Median Percentage Change in 2,3-DPG Levels [11]: −44%
Mean Percentage Change in 2,3-DPG Levels [12]: −43%
Median Percentage Change in 2,3-DPG Levels [12]: −44%
Mean Percentage Change in 2,3-DPG Levels [13]: −32%
Median Percentage Change in 2,3-DPG Levels [13]: −35%
Mean Percentage Change in 2,3-DPG Levels [14]: −22%
Median Percentage Change in 2,3-DPG Levels [14]: −20%
Mean Percentage Change in 2,3-DPG Levels [15]: 0%
Median Percentage Change in 2,3-DPG Levels [15]: 0.0%
Mean Percentage Change in 2,3-DPG Levels [16]: −16%
Median Percentage Change in 2,3-DPG Levels [16]: −13%
Mean Percentage Change in 2,3-DPG Levels [17]: −19%
Median Percentage Change in 2,3-DPG Levels [17]: −22%
Mean Percentage Change in 2,3-DPG Levels [18]: −22%
Median Percentage Change in 2,3-DPG Levels [18]: −23%
Mean Percentage Change in 2,3-DPG Levels [19]: −33%
Median Percentage Change in 2,3-DPG Levels [19]: −34%
Mean Percentage Change in 2,3-DPG Levels [20]: −45%
Median Percentage Change in 2,3-DPG Levels [20]: −48%
Mean Percentage Change in 2,3-DPG Levels [21]: −49%
Median Percentage Change in 2,3-DPG Levels [21]: −49%
Mean Percentage Change in 2,3-DPG Levels [22]: −49%
Median Percentage Change in 2,3-DPG Levels [22]: −49%
Mean Percentage Change in 2,3-DPG Levels [23]: −47%
Median Percentage Change in 2,3-DPG Levels [23]: −44%
Mean Percentage Change in 2,3-DPG Levels [24]: −43%
Median Percentage Change in 2,3-DPG Levels [24]: −42%
Mean Percentage Change in 2,3-DPG Levels [25]: −49%
Median Percentage Change in 2,3-DPG Levels [25]: −43%
Mean Percentage Change in 2,3-DPG Levels [26]: −47%
Median Percentage Change in 2,3-DPG Levels [26]: −48%
Mean Percentage Change in 2,3-DPG Levels [27]: −40%
Median Percentage Change in 2,3-DPG Levels [27]: −39%
Mean Percentage Change in 2,3-DPG Levels [28]: −23%
Median Percentage Change in 2,3-DPG Levels [28]: −20%
Mean Percentage Change in 2,3-DPG Levels [29]: 0%
Median Percentage Change in 2,3-DPG Levels [29]: 0.0%
Mean Percentage Change in 2,3-DPG Levels [30]: −20%
Median Percentage Change in 2,3-DPG Levels [30]: −19%
Mean Percentage Change in 2,3-DPG Levels [31]: −22%
Median Percentage Change in 2,3-DPG Levels [31]: −24%
Mean Percentage Change in 2,3-DPG Levels [32]: −31%
Median Percentage Change in 2,3-DPG Levels [32]: −32%
Mean Percentage Change in 2,3-DPG Levels [33]: −39%
Median Percentage Change in 2,3-DPG Levels [33]: −41%
Mean Percentage Change in 2,3-DPG Levels [34]: −47%
Median Percentage Change in 2,3-DPG Levels [34]: −51%
Mean Percentage Change in 2,3-DPG Levels [35]: −57%
Median Percentage Change in 2,3-DPG Levels [35]: −59%
Mean Percentage Change in 2,3-DPG Levels (HV 300 mg BID, Day 14, 6 h after first daily dose): −56%
Mean Percentage Change in 2,3-DPG Levels [36]: −55%
Median Percentage Change in 2,3-DPG Levels [36]: −55%
Mean Percentage Change in 2,3-DPG Levels [37]: −54%
Median Percentage Change in 2,3-DPG Levels [37]: −55%
Mean Percentage Change in 2,3-DPG Levels [38]: −53%
Median Percentage Change in 2,3-DPG Levels [38]: −52%
Mean Percentage Change in 2,3-DPG Levels [39]: −52%
Median Percentage Change in 2,3-DPG Levels [39]: −53%
Mean Percentage Change in 2,3-DPG Levels [40]: −43%
Median Percentage Change in 2,3-DPG Levels [40]: −45%
Mean Percentage Change in 2,3-DPG Levels [41]: −34%
Median Percentage Change in 2,3-DPG Levels [41]: −33%
Mean Percentage Change in 2,3-DPG Levels [42]: 0%
Median Percentage Change in 2,3-DPG Levels [42]: 0.0%
Mean Percentage Change in 2,3-DPG Levels (HV 400 mg QD, Day 1, 6 h after first daily dose): −26%
Mean Percentage Change in 2,3-DPG Levels [43]: −29%
Median Percentage Change in 2,3-DPG Levels [43]: −27%
Mean Percentage Change in 2,3-DPG Levels [44]: −38%
Median Percentage Change in 2,3-DPG Levels [44]: −38%
Mean Percentage Change in 2,3-DPG Levels [45]: −42%
Median Percentage Change in 2,3-DPG Levels [45]: −41%
Mean Percentage Change in 2,3-DPG Levels [46]: −48%
Median Percentage Change in 2,3-DPG Levels [46]: −48%
Mean Percentage Change in 2,3-DPG Levels [47]: −52%
Median Percentage Change in 2,3-DPG Levels [47]: −51%
Mean Percentage Change in 2,3-DPG Levels (HV 400 mg QD, Day 14, 6 h after first daily dose): −54%
